Assay results: paper PMC12518037, “Design, Synthesis, Biological Evaluation, and In Silico Study of Tetrahydropyridines as Prospective Monoamine Oxidase Inhibitors” (ChemistryOpen, 2025)

Columns and labels:
[1] = target: T1, MAO‐A (Homo sapiens, UniProt P21397); experiment: MAO-A inhibition assay (Amplex red fluorescence, tyramine substrate); format: biochemical; conditions: percent inhibition observed at 100 μM
T1 sequence (P21397 1-527): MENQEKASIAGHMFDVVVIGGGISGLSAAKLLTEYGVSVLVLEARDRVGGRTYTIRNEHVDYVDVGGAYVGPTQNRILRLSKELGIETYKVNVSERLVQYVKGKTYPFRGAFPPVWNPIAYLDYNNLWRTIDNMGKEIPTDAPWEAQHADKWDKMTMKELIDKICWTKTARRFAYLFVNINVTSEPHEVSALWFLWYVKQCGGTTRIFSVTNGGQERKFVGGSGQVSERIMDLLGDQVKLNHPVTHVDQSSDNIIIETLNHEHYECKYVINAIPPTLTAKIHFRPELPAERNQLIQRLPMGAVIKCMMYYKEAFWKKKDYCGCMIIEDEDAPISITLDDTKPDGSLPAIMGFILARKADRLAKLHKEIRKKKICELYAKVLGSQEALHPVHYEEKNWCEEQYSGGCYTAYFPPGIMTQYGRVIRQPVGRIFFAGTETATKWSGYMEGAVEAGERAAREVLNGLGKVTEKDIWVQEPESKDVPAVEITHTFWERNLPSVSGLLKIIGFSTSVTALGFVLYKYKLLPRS
Procedure: (§1) The range of compounds used in the study started at 1 mM for the initial screening to determine the percentage of inhibition. […] For 10 minutes, the reaction mixture was incubated at 37 °C. Tyramine, a substrate with a final concentration of 0.30 mM, was added to each well after 15 minutes, followed by 10 μL of Amplex red, a fluorogenic substrate. The FLUOstar Omega fluorescence plate reader (BMG Labtech GmbH, Ortenberg, Germany) was used to detect the change in fluorescence.

[2] = target: T2, MAO‐B (Homo sapiens, UniProt P27338); experiment: MAO-B inhibition assay (Amplex red fluorescence, tyramine substrate); format: biochemical; conditions: percent inhibition observed at 100 μM
T2 sequence (P27338 2-520): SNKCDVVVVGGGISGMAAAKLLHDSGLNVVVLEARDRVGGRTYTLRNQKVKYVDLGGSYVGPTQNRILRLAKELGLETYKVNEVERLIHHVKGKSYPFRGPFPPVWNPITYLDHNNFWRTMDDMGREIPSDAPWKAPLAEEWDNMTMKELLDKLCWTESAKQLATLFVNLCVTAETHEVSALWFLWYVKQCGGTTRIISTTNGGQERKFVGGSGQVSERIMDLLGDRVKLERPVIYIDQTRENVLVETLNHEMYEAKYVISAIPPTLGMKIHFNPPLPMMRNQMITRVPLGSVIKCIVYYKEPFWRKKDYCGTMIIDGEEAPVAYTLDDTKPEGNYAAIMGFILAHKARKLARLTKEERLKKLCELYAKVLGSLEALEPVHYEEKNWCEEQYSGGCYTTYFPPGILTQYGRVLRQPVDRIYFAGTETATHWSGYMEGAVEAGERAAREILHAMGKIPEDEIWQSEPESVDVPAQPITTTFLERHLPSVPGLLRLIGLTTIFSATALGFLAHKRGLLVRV
Procedure: as §1

SMILES	inhibition at 100 µM [1] [%]	inhibition at 100 µM [2] [%]
CCOC(=O)C1=C(Nc2ccc(Cl)cc2)CC(c2ccccc2)N(c2ccc(Cl)cc2)C1c1ccccc1 (centres unmarked) [4 b, Ethyl 1‐(4‐chlorophenyl)‐4‐(4‐chlorophenylamino)‐2,6‐diphenyl‐1,2,5,6‐tetrahydropyridine‐3‐carboxylate]	40	–
CCOC(=O)C1=C(Nc2ccc(Br)cc2)CC(c2ccc(Cl)cc2)N(c2ccc(Br)cc2)C1c1ccc(Cl)cc1 (centres unmarked) [4 h, Ethyl 1‐(4‐bromophenyl)‐4‐(4‐bromophenylamino)‐2,6‐bis(4‐chlorophenyl)‐1,2,5,6‐tetrahydropyridine‐3‐carboxylate]	< 50	–
CCOC(=O)C1=C(Nc2ccc(OC)cc2)CC(c2ccc(Cl)cc2)N(c2ccc(OC)cc2)C1c1ccc(Cl)cc1 (centres unmarked) [4 i, Ethyl 2,6‐bis(4‐chlorophenyl)‐1‐(4‐methoxyphenyl)‐4‐(4‐methoxyphenylamino)‐1,2,5,6‐tetrahydropyridine‐3‐carboxylate]	< 50	< 50
CCOC(=O)C1=C(Nc2ccc(C)cc2)CC(c2ccc(Cl)cc2)N(c2ccc(C)cc2)C1c1ccc(Cl)cc1 (centres unmarked) [4 j, Ethyl 4‐(p–toluidino)‐2,6‐bis(4‐chlorophenyl)‐1‐p–tolyl‐1,2,5,6‐tetrahydropyridine‐3‐carboxylate]	< 50	< 50
CCOC(=O)C1=C(Nc2ccc(Cl)cc2)CC(c2ccc([N+](=O)[O-])cc2)N(c2ccc(Cl)cc2)C1c1ccc([N+](=O)[O-])cc1 (centres unmarked) [4 l, Ethyl 1‐(4‐chlorophenyl)‐4‐(4‐chlorophenylamino)‐2,6‐bis(4‐nitrophenyl)‐1,2,5,6‐tetrahydropyridine‐3‐carboxylate]	–	23
CCOC(=O)C1=C(Nc2ccc(Br)cc2)CC(c2ccc([N+](=O)[O-])cc2)N(c2ccc(Br)cc2)C1c1ccc([N+](=O)[O-])cc1 (centres unmarked) [4 m, Ethyl 1‐(4‐bromophenyl)‐4‐(4‐bromophenylamino)‐2,6‐bis(4‐nitrophenyl)‐1,2,5,6‐tetrahydropyridine‐3‐carboxylate]	–	46
